By IC50 is commonly meant the concentration that gives 50% inhibition. By EC50 is commonly meant the midpoint of the concentration-response curve. The GI50 is the concentration giving 50% growth inhibition. The AC50 is the concentration at which the activity in the assay is half-maximal.

Consider seven compounds from ChEMBL document CHEMBL1201862, “PubChem BioAssay data set” (2004).

The target in test [1] is Alkaline phosphatase, placental type (Homo sapiens, UniProt P05187). Briefly: PLAP enzyme inhibitors, confirmation, biochemical, luminescence (AID 1512). The test is classed as functional.
In test [2] the target is T1, Alkaline phosphatase, tissue-nonspecific isozyme (Homo sapiens, UniProt P05186).
T1 sequence (P05186 whole entry): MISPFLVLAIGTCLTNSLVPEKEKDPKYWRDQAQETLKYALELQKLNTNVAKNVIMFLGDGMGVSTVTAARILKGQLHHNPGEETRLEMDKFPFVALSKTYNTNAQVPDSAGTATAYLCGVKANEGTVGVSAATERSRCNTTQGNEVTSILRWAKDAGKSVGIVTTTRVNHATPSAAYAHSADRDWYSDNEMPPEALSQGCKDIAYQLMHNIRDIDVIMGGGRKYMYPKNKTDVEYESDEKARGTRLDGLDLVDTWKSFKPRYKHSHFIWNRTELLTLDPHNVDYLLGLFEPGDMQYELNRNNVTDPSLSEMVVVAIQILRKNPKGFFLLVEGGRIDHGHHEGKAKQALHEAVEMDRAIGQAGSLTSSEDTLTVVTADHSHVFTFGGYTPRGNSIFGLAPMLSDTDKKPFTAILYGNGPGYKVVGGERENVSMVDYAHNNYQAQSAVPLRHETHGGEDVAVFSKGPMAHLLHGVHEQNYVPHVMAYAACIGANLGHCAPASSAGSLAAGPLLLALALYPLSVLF
The test can be described thus: human TNAP enzyme inhibitors, SAR follow-up, biochemical, luminescent, dose response (AID 1056).

Test [3] has as its target T2, Tyrosine-protein phosphatase non-receptor type 22 (Homo sapiens, UniProt Q9Y2R2).
T2 sequence (Q9Y2R2 whole entry): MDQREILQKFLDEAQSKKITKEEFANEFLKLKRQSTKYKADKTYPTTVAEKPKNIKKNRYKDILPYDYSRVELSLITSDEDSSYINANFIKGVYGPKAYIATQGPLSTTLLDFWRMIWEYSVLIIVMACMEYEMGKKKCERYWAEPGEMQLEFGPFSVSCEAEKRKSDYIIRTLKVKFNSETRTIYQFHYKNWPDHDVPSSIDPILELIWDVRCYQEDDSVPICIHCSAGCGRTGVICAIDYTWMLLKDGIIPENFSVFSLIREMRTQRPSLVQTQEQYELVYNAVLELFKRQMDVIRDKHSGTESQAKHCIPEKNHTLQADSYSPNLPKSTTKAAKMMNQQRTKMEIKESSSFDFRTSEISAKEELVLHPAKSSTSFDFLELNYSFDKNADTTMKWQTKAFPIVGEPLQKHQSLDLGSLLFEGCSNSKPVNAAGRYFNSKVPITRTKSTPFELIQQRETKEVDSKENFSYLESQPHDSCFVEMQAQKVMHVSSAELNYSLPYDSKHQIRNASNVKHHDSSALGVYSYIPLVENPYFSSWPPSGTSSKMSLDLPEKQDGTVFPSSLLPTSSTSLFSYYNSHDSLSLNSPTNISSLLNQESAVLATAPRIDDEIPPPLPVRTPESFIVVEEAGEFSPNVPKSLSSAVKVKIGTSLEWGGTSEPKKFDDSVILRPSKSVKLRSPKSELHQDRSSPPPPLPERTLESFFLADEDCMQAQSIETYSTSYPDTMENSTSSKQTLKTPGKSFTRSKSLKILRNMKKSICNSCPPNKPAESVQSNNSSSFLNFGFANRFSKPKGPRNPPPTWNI
It is filed as functional.

Test [4] deals with T2, Tyrosine-protein phosphatase non-receptor type 22. The test is classed as functional. This is another data set of the same source.
Test [5] has as its target T3, Tyrosine-protein phosphatase non-receptor type 7 (Homo sapiens, UniProt P35236).
T3 sequence (P35236 whole entry): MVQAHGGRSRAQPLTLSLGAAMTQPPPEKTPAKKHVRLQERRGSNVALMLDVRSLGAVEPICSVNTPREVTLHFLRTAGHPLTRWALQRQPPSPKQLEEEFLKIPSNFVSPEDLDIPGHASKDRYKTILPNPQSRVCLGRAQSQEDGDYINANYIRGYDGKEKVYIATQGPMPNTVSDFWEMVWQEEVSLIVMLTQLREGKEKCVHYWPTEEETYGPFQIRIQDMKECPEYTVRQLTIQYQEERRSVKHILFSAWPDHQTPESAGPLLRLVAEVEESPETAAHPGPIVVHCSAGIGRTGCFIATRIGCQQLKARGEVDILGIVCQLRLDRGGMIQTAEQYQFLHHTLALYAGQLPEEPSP
The test is classed as functional.

In test [6] the target is Glyceraldehyde-3-phosphate dehydrogenase (Homo sapiens, UniProt P04406).
Another test concerns the target SUMO-activating enzyme (Homo sapiens, UniProt Q9UBT2). Briefly: SUMOylation inhibitor hit validation, confirmation, SUMOylation inhibitor project, biochemical, AlphaScreen (AID 2018). The test is classed as functional. In general terms: Bead proximity is the source of the signal in Alpha formats.
In test [7] the target is T4, G-protein coupled receptor 35 (Homo sapiens, UniProt Q9HC97). The test can be described thus: SAR analysis of Antagonists of the GPR35 Receptor using an Image-Based Assay - Set 4. [Related pubchem assays (depositor defined):[…]]. It is filed as functional.
The target of test [8] is T5, Cannabinoid receptor 2 (Homo sapiens, UniProt P34972). Briefly: SAR analysis of antagonists of the Cannabinoid Receptor 2 using an Image-Based Assay - Set 2. [Related pubchem assays (depositor defined):AID1961, AID1965]. The test is classed as functional.
For test [9], the target named is T6, Cannabinoid receptor 1 (Homo sapiens, UniProt P21554). The test can be described thus: SAR analysis of agonists of the Cannabinoid Receptor 1 using an Image-Based Assay - Set 3. [Related pubchem assays (depositor defined):AID1961, AID1965]. It is filed as functional.
Test [10] concerns the target G-protein coupled receptor 55 (Homo sapiens, UniProt Q9Y2T6). The test can be described thus: SAR analysis of selective Agonists of GPR55 using an Image-Based Assay - Set 2. [Related pubchem assays (depositor defined):AID1961, AID1965]. The test is classed as functional.
Test [11] has as its target T5, Cannabinoid receptor 2. Briefly: SAR analysis of agonists of the Cannabinoid Receptor 2 using an Image-Based Assay - Set 2. [Related pubchem assays (depositor defined):AID1961, AID1965]. The test is classed as functional.
Test [12] has as its target T6, Cannabinoid receptor 1. The test can be described thus: SAR analysis of antagonists of the Cannabinoid Receptor 1 using an Image-Based Assay - Set 3. [Related pubchem assays (depositor defined):AID1961, AID1965]. The test is classed as functional.
Test [13] addresses T4, G-protein coupled receptor 35. Briefly: SAR analysis of Agonists of the GPR35 Receptor using an Image-Based Assay - Set 3. [Related pubchem assays (depositor defined):AID1961, AID1965]. The test is classed as functional.
The nature of test [14]: cells. It is filed as functional.
Test [15] is described as follows: THP-1 cell cytotoxicity, dose response, cytotoxicity control for non-replicating M. tuberculosis project (AID 489025). The test is classed as functional.
A further test relates to P388. The test can be described thus: cells. The test is classed as functional. Conditions: Mus musculus.
In the next test the test system is SN12K1. Briefly: cells. It is filed as functional. As to conditions: Homo sapiens.
Test [16] in a line: inhibitors of intracellular T. cruzi replication, confirmation, NIH3T3 host cells, beta-gal luminescence (AID 2044).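 Note: intracellular parasites grown in NIH/3T3 mouse fibroblasts as host cells; luminescent beta-galactosidase reporter signal from transgenic T. cruzi replicating inside host cells; inhibitors lower the luminescence signal.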 It is filed as functional, cell-based.
A short description of test [17]: cytotoxicity toward NIH3T3 fibroblasts, dose response, counter-screen, cell-based, ATP luminescence, mouse fibroblasts (AID 2010).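 Note: cells exposed to compound for about 90 hours before reading.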 It is filed as functional. A general note: Counterscreens check selectivity or assay interference.
Another test has as its system P388/ADR. Briefly: cells. The test is classed as functional. Conditions: Mus musculus.
The subject of test [18] is Streptococcus sp. 'group A'. Briefly: growth inhibition of control SK(-) GAS strain, dose response, counter-screen for streptokinase expression inhibitor project, luminescence, kanamycin, BacTiterGlo, confirmation (AID 1900). It is filed as functional, organism-based.
For another test, the system named is Streptococcus. The test can be described thus: Group A Streptococcus viability loss, dose response, counter-screen for streptokinase expression inhibitor project, luminescence, BacTiterGlo (AID 1915).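 Note: potency for reduction of bacterial viability or growth.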 The test is classed as functional, organism-based.
Another test concerns HEK293. The test can be described thus: inhibitors of LMP1-driven NF-kB reporter, dose response, cell-based, HEK293, luciferase, cherry-pick (AID 588343). The test is classed as functional. As to conditions: Homo sapiens.
The nature of test [19]: cells.
A short description of test [20]: HepG2 cell cytotoxicity, dose response, cytotoxicity control for non-replicating M. tuberculosis project (AID 489018). The test is classed as functional. As to conditions: Mycobacterium tuberculosis.
The nature of test [21]: microbe, parasite or virus in culture. The test is classed as functional. As to conditions: Mycobacterium tuberculosis.

Molecules are shown by their SMILES. The source made the active and inactive calls. A value given as a limit tells only on which side of the number the result lay.

T6 sequence (P21554 whole entry): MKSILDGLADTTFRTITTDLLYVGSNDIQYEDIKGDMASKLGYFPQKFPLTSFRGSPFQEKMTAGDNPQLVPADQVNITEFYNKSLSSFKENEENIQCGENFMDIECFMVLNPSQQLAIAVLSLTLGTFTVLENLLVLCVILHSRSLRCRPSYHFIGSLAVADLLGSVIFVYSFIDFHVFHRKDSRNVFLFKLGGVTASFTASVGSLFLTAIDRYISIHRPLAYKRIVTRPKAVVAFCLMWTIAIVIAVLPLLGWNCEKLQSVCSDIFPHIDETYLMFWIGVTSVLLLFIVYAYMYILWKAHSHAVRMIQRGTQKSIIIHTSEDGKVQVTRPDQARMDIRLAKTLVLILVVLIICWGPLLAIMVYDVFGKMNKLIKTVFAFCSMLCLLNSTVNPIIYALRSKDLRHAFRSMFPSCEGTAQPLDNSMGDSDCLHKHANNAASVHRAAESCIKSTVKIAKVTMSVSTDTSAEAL
T4 sequence (Q9HC97 whole entry): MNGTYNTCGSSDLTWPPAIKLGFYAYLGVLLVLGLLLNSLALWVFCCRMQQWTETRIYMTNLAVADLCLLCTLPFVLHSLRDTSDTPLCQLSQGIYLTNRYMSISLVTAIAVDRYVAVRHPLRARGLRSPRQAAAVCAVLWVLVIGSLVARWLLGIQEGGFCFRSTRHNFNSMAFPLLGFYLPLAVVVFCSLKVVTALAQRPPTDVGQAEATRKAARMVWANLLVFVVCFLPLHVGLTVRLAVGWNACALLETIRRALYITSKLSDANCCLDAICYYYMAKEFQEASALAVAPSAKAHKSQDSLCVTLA
T5 sequence (P34972 whole entry): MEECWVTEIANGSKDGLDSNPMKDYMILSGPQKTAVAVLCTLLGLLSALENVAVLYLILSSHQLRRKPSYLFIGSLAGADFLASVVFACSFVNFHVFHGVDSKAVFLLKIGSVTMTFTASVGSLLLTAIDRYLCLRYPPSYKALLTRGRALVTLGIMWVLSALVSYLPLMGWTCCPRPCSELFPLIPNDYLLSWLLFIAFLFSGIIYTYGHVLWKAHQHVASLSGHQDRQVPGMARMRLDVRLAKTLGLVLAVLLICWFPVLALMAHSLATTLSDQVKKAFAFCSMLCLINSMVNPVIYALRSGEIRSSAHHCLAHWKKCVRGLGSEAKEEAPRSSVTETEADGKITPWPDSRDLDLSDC
Chain of Alkaline phosphatase, placental type (P05187 whole entry): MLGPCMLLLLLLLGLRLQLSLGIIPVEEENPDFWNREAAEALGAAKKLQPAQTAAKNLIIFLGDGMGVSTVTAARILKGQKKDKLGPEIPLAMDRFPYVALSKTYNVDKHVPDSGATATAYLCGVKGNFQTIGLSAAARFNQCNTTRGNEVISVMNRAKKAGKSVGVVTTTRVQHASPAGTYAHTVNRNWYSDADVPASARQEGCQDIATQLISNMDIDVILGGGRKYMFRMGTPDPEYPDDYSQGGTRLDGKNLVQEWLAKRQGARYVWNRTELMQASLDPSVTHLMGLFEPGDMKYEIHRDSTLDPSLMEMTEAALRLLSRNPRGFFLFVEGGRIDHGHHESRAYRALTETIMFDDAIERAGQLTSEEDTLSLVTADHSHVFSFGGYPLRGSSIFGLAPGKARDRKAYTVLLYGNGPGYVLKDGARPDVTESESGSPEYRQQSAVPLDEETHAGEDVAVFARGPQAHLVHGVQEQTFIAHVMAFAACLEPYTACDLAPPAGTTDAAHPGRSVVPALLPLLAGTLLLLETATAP
Chain of G-protein coupled receptor 55 (Q9Y2T6 whole entry): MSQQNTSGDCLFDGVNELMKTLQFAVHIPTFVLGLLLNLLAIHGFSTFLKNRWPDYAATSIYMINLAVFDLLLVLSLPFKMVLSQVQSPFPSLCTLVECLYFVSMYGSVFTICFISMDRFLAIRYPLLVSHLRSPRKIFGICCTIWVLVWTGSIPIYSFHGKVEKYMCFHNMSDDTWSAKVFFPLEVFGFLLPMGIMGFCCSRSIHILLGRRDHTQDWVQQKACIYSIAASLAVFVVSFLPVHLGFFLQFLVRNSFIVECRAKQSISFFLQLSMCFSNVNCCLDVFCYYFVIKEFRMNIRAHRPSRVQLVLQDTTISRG
Chain of Glyceraldehyde-3-phosphate dehydrogenase (P04406 whole entry): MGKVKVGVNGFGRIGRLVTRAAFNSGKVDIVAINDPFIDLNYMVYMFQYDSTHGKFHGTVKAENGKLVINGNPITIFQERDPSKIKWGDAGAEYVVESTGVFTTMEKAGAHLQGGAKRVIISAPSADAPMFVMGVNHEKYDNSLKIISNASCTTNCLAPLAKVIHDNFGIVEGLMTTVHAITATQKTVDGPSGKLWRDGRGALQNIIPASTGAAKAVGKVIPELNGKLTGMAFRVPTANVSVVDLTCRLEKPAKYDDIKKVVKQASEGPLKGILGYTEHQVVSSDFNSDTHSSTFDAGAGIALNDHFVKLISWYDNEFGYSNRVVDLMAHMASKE
Chain of SUMO-activating enzyme (Q9UBE0 whole entry): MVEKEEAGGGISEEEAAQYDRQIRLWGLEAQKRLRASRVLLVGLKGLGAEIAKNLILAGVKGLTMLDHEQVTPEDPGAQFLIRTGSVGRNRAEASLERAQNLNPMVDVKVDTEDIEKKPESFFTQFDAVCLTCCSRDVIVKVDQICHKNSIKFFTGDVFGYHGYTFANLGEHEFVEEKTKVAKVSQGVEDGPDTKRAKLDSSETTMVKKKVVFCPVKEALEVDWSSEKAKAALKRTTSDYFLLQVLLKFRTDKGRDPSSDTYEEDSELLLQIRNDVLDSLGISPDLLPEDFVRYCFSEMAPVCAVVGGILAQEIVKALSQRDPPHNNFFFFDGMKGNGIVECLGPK
Chain of SUMO-activating enzyme (Q9UBT2 whole entry): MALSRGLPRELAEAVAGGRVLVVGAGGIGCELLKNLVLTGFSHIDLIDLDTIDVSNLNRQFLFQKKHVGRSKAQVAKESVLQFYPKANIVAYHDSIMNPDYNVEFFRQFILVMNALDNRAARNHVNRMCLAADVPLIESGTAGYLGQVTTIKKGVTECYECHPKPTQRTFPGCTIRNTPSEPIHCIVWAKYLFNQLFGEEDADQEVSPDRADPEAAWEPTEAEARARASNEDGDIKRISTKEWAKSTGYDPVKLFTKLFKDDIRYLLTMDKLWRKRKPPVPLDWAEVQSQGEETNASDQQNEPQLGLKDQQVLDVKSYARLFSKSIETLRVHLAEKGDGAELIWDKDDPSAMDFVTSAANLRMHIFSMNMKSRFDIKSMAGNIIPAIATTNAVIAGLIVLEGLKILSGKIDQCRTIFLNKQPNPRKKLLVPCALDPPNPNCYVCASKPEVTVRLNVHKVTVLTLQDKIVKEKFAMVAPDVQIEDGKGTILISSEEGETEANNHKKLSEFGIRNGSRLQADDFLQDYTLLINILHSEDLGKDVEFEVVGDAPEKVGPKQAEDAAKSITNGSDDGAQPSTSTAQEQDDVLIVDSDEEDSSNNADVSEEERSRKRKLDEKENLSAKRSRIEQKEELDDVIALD

`C=CCN1C(=O)NC2(O)C(=O)c3ccccc3C12O` (stereo unspecified): the IC50 was 12.7 µM (active) in [1] and 56.3 µM (active) in test [2].

`CC(C)Cc1nc(S(=O)(=O)c2ccc(Cl)cc2)c(N2CCOCC2)o1`: the IC50 in [3], in [4] and in test [5] was > 79.4 µM (inactive) each time.

Take `CCCc1nn(C(C)=O)c2c1C(=O)CC(C)(C)C2`: the IC50 is > 100 µM (not active) in test [6], > 100 µM (inactive) in test [1] and 19.1 µM (active) in test [2].

With `NC(=O)CC(NC(=O)Cc1ccc(Br)cc1)c1ccc(NCCc2ccccc2F)c([N+](=O)[O-])c1` (stereo unspecified), the IC50 on SUMO-activating enzyme was 78.2 µM (active).

Regarding `COc1ccc(S(=O)(=O)N2CCOCC2)cc1NC(=O)c1sc2cccc(F)c2c1C`, the IC50 (in test [7]; on Cannabinoid receptor 2 [8]; on Cannabinoid receptor 1 [12]) was > 32 µM (inactive) throughout. The EC50 (at Cannabinoid receptor 1 [9]; in test [10]; at Cannabinoid receptor 2 [11]; in test [13]) was > 32 µM (inactive) each time.

For the compound `CN(C)S(=O)(=O)c1ccc(N2CCCC2)c(C(=O)N2CCN(c3ccccc3)CC2)c1`, the IC50 (in test [7]; at Cannabinoid receptor 2 [8]; on Cannabinoid receptor 1 [12]) was > 32 µM (inactive) throughout. For the same compound, the EC50 at Cannabinoid receptor 1 [9] is > 32 µM (inactive); in [10], 1.67 µM (active); on Cannabinoid receptor 2 [11], > 32 µM (inactive); in test [13], > 32 µM (inactive).

Consider `CO[C@@]12[C@H](COC(N)=O)C3=C(C(=O)C(C)=C(N)C3=O)N1C[C@H]1[C@@H]2N1C` (stereo partly specified) [PORFIROMYCIN], for which, in the test “cells [14]”, the IC50 is 0.65 µM (active). In addition, the CC50 in test [15] was 1.32 µM (active); in [20], > 20 µM (active); in [21], 28.3 µM (active). The GI50 was 1.88 µM (inactive) in the test on P388, 3.9 µM (inactive) in the test with SN12K1 and 7.74 µM (inactive) in the test with P388/ADR. Further, the EC50 was < 0.1 µM (active) in test [16]; 6.8 µM (active) in test [17]; < 0.06 µM (active) in [18]; < 0.06 µM (active) with Streptococcus; 0.088 µM (active) in “cells [19]”. For the same compound, the AC50 in the test with HEK293 was 4.01 µM (active).
